From ChEMBL document CHEMBL1201862, “PubChem BioAssay data set” (2004)
Active and inactive are the calls of the source.

Experiments:
Keap1/Nrf2 = Keap1/Nrf2 (Homo sapiens, UniProt Q14145); experiment: Keap1-Nrf2 protein-protein interaction inhibitors, dose response, biochemical, fluorescence polarization, cherry-picked samples (AID 588683)
[1] = target: T1, Zinc finger protein mex-5 (Caenorhabditis elegans, UniProt Q9XUB2); experiment: MEX-5/TCR-2 RNA interaction inhibitors, dose response, biochemical, C. elegans, fluorescence polarization (AID 1960)
T1 sequence (Q9XUB2 whole entry): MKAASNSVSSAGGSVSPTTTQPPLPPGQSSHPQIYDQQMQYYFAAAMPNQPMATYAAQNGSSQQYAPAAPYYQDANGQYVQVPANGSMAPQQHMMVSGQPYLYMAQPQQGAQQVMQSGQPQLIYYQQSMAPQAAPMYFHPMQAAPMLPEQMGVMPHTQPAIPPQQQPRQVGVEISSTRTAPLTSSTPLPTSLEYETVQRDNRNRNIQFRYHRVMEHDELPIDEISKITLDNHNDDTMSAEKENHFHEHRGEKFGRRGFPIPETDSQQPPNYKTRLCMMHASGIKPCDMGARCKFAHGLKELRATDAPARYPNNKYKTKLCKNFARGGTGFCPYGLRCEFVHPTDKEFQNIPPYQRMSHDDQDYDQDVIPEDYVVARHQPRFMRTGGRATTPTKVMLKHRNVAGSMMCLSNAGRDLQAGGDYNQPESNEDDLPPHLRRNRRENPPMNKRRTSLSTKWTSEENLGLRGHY

[2] = target: T2, DNA repair and recombination protein RAD54-like (Homo sapiens, UniProt Q92698); experiment: inhibitors of human RAD54 branch migration, confirmation, biochemical, fluorescence, cherry-picked samples, dose series (AID 651657); type: functional
T2 sequence (Q92698 whole entry): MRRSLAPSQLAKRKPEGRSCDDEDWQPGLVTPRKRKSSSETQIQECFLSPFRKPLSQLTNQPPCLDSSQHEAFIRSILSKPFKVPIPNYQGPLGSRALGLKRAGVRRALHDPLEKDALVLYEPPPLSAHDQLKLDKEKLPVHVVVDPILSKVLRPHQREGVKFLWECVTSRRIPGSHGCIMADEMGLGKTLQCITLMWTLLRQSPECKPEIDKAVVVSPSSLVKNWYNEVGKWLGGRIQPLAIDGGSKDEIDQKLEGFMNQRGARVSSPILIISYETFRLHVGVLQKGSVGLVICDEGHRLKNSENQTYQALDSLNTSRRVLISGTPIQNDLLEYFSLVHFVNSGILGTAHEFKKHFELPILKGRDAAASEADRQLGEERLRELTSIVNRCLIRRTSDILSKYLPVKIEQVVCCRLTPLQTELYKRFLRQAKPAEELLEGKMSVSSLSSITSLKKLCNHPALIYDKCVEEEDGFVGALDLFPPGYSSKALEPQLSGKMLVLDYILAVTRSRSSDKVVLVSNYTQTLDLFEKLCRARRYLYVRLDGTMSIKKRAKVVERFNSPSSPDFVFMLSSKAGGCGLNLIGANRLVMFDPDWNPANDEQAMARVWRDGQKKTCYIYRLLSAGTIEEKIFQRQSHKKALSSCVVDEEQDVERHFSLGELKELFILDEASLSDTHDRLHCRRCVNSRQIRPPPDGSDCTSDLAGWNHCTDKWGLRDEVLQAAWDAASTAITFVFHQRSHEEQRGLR

Troponin, cardiac muscle = Troponin, cardiac muscle (Homo sapiens, UniProt P19429+P45379+P63316); experiment: inhibitors of cardiac thin filament calcium sensitivity, dose response, biochemical, fluorescence, cardiac regulated thin filaments, triplicate IC50 (AID 504742); type: protein-complex assay
[3] = target: T3, Long-chain-fatty-acid--AMP ligase FadD28 (Mycobacterium tuberculosis, UniProt P9WQ59); experiment: Fluorescence polarization aasay to screen for inhibitors that compete for the binding of FadD28 to a bisubstrate Measured in Biochemical System Using Plate Reader - 2147-01_Inhibitor_Dose_CherryPick_Activity.; type: functional, Mycobacterium tuberculosis H37Rv
T3 sequence (P9WQ59 whole entry): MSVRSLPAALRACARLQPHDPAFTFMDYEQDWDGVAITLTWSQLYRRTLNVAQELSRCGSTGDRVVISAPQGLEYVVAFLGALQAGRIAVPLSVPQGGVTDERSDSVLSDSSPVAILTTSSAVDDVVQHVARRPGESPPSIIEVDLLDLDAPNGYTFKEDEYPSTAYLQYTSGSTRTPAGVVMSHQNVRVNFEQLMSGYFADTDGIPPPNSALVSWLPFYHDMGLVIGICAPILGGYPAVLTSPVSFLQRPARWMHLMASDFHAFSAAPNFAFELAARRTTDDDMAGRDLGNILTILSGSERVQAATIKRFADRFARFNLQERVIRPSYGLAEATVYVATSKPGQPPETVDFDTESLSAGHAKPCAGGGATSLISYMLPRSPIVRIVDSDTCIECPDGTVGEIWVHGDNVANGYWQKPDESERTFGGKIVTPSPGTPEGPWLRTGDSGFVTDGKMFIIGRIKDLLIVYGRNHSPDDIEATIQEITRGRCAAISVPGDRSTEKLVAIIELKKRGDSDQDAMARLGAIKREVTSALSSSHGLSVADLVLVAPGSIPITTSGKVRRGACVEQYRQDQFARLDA

[4] = target: T4, Small ubiquitin-related modifier 2 (Homo sapiens, UniProt P61956); experiment: inhibitors of SUMO2 protein-protein interaction, dose response, selectivity assay for SUMO1 interaction inhibitor project, biochemical, FRET, human SUMO2, uHTS hits (AID 624384); type: functional; conditions: read-out: IC50_Mean
[5] = target: T4, Small ubiquitin-related modifier 2; experiment: SUMO2–SIM peptide binding inhibitors, dose response, selectivity assay for SUMO1 interaction inhibitor project, biochemical, fluorescence polarization, uHTS hits (AID 624385); type: functional; conditions: read-out: IC50_Mean
[6] = HepG2 cell cytotoxicity, dose response, cytotoxicity control for Shn3 inhibitor project, CellTiter-Glo, cherry-picked (AID 624134); type: functional, cell-based
[7] = target: T5, Heat shock factor protein 1 (Mus musculus, UniProt P38532); experiment: inhibition of MG132-induced HSE-luciferase signal, confirmation, cell-based, NIH3T3, luminescence, dose retest (AID 2382); type: functional;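 also: NIH3T3 fibroblasts with HSF1-driven luciferase reporter stressed by proteasome inhibitor MG132; luminescence from HSF1-driven luciferase expression after 8 hours of MG132 stress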
T5 sequence (P38532 whole entry): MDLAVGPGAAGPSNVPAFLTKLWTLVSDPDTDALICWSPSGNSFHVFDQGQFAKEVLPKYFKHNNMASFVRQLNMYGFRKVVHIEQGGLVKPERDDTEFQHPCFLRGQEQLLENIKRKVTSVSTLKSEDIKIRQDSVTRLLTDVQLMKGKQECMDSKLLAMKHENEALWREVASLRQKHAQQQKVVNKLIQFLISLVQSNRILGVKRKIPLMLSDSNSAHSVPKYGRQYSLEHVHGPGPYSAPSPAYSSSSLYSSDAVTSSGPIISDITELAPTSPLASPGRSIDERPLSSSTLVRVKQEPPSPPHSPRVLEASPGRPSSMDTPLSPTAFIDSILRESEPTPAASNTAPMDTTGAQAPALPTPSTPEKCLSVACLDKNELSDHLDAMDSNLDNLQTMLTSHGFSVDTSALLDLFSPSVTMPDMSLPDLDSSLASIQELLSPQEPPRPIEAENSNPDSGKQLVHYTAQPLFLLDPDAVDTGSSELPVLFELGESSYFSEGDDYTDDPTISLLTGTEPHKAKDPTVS

Beta-galactosidase = Beta-galactosidase (Escherichia coli, UniProt Q8VNN2); type: functional

In the case of `CCN(CC)CCN1C(=O)c2cccc3cc(N)cc(c23)C1=O`, the AC50 (Keap1/Nrf2) is reported as > 52 µM (inactive), the EC50 [1] is reported as 5.13 µM (inconclusive) and the AC50 [2] is reported as 8.83 µM (active).

For `O=C(O)c1cccc(-n2cccc2/C=C2/NC(=O)N(c3ccc(Cl)cc3)C2=O)c1`, the IC50 (Troponin, cardiac muscle) was 3.45 µM (active), the AC50 [3] was 58 µM (active) and the IC50 [4] was 0.752 µM (active). For the same compound, the IC50 [5] was 66 µM (inactive).

For `C=C1C(=O)O[C@@H]2C[C@@H](C)[C@@H]3C=CC(=O)[C@@]3(C)[C@@H](OC(=O)CC(=O)O[C@H]3[C@@H]4C(=C)C(=O)O[C@@H]4C[C@@H](C)[C@@H]4C=CC(=O)[C@]43C)[C@H]12`, the AC50 [6] was 0.895 µM (active), the EC50 [7] was 0.98 µM (active) and the EC50 (Beta-galactosidase) was > 31.5 µM (inactive).
